Source: patent US20120316137A1, “Methods and Compositions for Treating Cancer” (priority 2009, published 2012)
Where two headings read alike, the source gives them in different places.

Legend:
[1] = test system: AN3CA endometrial cancer cells with mutant FGFR2 (N549K); test: cells; conditions: Homo sapiens, AN3-CA, read-out: Cell growth GI50 (nM)
Excerpt: (§1) Data are shown as mean (±SD) from 3 separate experiments tested in triplicate.

[2] = test system: OPM2 multiple myeloma cells, mutant FGFR3 (K650E); test: cells; conditions: Homo sapiens, OPM-2, read-out: Cell growth GI50 (nM)
Excerpt: as §1

[3] = test system: MDA-MB-453 breast cancer cells, mutant FGFR4 (Y367C); test: cells; conditions: Homo sapiens, MDA-MB-453, read-out: Cell growth GI50 (nM)
Excerpt: as §1

[4] = test system: FGFR2 signaling in SNU16 gastric cells (Amplified); test: cells; conditions: Homo sapiens, SNU-16, read-out: Signaling IC50 (nM)
Excerpt: Cells were lysed in either SDS buffer or Phospho-Safe (Novagen, Gibbstown, N.J.) and protein lysates were immunoprecipitated overnight and/or immunoblotted with the indicated antibodies. Protein expression was quantified using Quantity One software (BioRad, Hercules, Calif.).

[5] = test system: KG1 cells (FGFR1-FGFR1OP2 fusion); test: Cell growth assay (72 h); format: cell-based; conditions: Homo sapiens
Excerpt: as §1

[6] = test system: MGH-U3 bladder cancer cells, mutant FGFR3b (Y375C); test: Cell growth assay (72 h); format: cell-based
Excerpt: as §1

[7] = test system: SNU16 gastric cancer cells with amplified FGFR2; test: cells; conditions: Homo sapiens, SNU-16, read-out: Cell growth GI50 (nM)
Excerpt: as §1

[8] = test system: RS4;11 cells (wt); test: Cell viability assay (72 h); conditions: Homo sapiens, RS4-11, 72 h, read-out: Cell viability IC50 (nM)
Description: (§2) Exponentially growing cell lines were plated into 96-well plates and incubated overnight at 37° C. […] Fluorescence was measured using a Wallac Victor microplate reader (PerkinElmer, Waltham, Mass.). […] Data are shown as mean (1 SD) from 3 separate experiments, each tested in triplicate.

[9] = test system: EOL1 cells (FIP1L1-PDGFRα); test: Cell viability assay (72 h); conditions: Homo sapiens, EOL1, 72 h, read-out: Cell viability IC50 (nM)
Description: as §2

[10] = test system: KG1 cells (FGFR1OP2-FGFR1); test: Cell viability assay (72 h); conditions: Homo sapiens, KG-1, 72 h, read-out: Cell viability IC50 (nM)
Description: as §2

[11] = test system: Kasumi-1 cells (c-KIT N822K); test: Cell viability assay (72 h); format: cell-based; conditions: Homo sapiens; Kasumi-1; 72 hours; read-out: Cell viability IC50
Description: as §2

[12] = test system: MV4-11 cells (FLT3-ITD); test: Cell viability assay (72 h); conditions: Homo sapiens, MV4-11, 72 h, read-out: Cell viability IC50 (nM)
Description: as §2

[13] = target: FGFR4 (Homo sapiens, UniProt P22455); test: Kinase assay (RBC)
[14] = test system: mononuclear cells from a CML accelerated phase patient harboring BCR-ABL^T315I; test: Hematopoietic colony forming assay; conditions: methylcellulose, 14-18 days
[15] = target: FGFR2 (Homo sapiens, UniProt P21802); test: Kinase assay (RBC); conditions: IC50 (nM), 10 μM ATP
[16] = test system: AN3CA endometrial cancer cell line; test: Combination cell growth assay (Chou and Talalay); format: cell-based; conditions: AN3CA cells; cell growth; read-out: 1×EC50 concentration
[17] = test system: MFE-296 endometrial cancer cell line; test: Combination cell growth assay (Chou and Talalay); format: cell-based; conditions: MFE-296 cells; cell growth; read-out: 1×EC50 concentration
[18] = test system: FGFR2-mutant AN3CA tumor xenograft; test: AN3CA xenograft, compound 1 and ridaforolimus (Example 9); format: in vivo, nude mice
Description: AN3CA cells were implanted into the right flank of nude mice. […] Mean tumor volumes (±SE; tumor volume=L×W^2×0.5) were calculated for each treatment group.

[19] = MGH-U3, read-out: Cell growth GI50
[20] = KG-1, read-out: Cell growth GI50 (nM)

Sequence of FGFR2 (P21802 481-770 limits assumed): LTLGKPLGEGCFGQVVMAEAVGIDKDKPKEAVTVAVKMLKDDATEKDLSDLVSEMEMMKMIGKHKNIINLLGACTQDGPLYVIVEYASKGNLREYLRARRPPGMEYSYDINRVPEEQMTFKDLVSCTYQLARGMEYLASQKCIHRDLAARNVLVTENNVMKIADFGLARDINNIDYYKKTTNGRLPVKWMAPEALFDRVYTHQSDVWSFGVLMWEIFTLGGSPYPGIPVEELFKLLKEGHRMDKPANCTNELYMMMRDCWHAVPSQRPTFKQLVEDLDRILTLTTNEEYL
Sequence of FGFR4 (P22455 467-755 limits assumed): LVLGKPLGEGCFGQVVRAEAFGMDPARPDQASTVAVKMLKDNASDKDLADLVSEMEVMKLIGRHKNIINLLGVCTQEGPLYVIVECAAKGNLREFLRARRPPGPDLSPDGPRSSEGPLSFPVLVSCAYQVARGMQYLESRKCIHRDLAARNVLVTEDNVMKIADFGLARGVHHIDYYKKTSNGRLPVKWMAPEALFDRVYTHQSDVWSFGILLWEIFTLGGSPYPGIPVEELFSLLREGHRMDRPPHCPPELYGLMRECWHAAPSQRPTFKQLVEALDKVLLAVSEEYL

Row | Compound | GI50 [1] | GI50 [2] | GI50 [3] | IC50 [4] | GI50 [6, 19] | GI50 [7] | other results
1 | COc1cc2c(Oc3ccc4[nH]c(C)cc4c3F)ncnc2cc1OCCCN1CCCC1 [AZD 2171] | 34 nM | 296 nM | > 1000 nM | 148 nM | 296 nM | – | GI50 ([5]; KG-1, KG1, read-out: Cell growth GI50): 23 nM
2 | COC(=O)c1ccc2c(c1)NC(=O)/C2=C(\Nc1ccc(N(C)C(=O)CN2CCN(C)CC2)cc1)c1ccccc1 [BIBF 1120] | 684 nM | 297 nM | 1540 nM | 496 nM | – | 496 nM | GI50 [5, 20]: 221 nM; GI50 ([6]; read-out: Cell growth GI50 (nM), MGH-U3): > 1000 nM
3 | CNC(=O)c1cc(Oc2ccc(NC(=O)Nc3ccc(Cl)c(C(F)(F)F)c3)cc2)ccn1 [Sorafenib, sorafenib] | – | – | – | – | – | – | IC50 [8]: > 100 nM; IC50 [9]: 0.5 nM; IC50 [10]: > 100 nM; IC50 [11]: 59 nM; IC50 [12]: 4 nM
4 | CCN(CC)CCCCNc1ncc2cc(-c3cc(OC)cc(OC)c3)c(NC(=O)NC(C)(C)C)nc2n1 [PD 173074] | 187 nM | 83 nM | 1660 nM | – | 850 nM | 20 nM | IC50 [13]: 367 nM; GI50 [5, 20]: 10 nM
5 | Cc1cn(-c2cc(NC(=O)c3ccc(C)c(Nc4nccc(-c5cccnc5)n4)c3)cc(C(F)(F)F)c2)cn1 [nilotinib] | – | – | – | – | – | – | effect on colony formation [14]: neither nilotinib nor dasatinib showed any effect
6 | Cc1cc2c(F)c(Oc3ncnn4cc(OC[C@@H](C)O)c(C)c34)ccc2[nH]1 [BMS-540215] | > 1000 nM | 6200 nM | > 10000 nM | > 1000 nM | > 1000 nM | > 1000 nM | IC50 [15]: 202 nM
7 | CO[C@H]1C[C@@H]2CC[C@@H](C)[C@@](O)(O2)C(=O)C(=O)N2CCCC[C@H]2C(=O)O[C@H]([C@H](C)C[C@@H]2CC[C@@H](OP(C)(C)=O)[C@H](OC)C2)CC(=O)[C@H](C)/C=C(\C)[C@@H](O)[C@@H](OC)C(=O)[C@H](C)C[C@H](C)/C=C/C=C/C=C/1C [Ridaforolimus, reference compound] | – | – | – | – | – | – | EC50 [16]: 0.4 nM; EC50 [17]: 1 nM; TGI (%) ([18]; Ridaforolimus 0.3 mg/kg alone): 48%; TGI (%) ([18]; Ridaforolimus 1 mg/kg alone): 70%
8 | CCN(CC)CCNC(=O)c1c(C)[nH]c(/C=C2\C(=O)Nc3ccc(F)cc32)c1C [Sunitinib, sunitinib] | – | – | – | – | – | – | IC50 [8]: > 100 nM; IC50 [9]: 3 nM; IC50 [10]: > 100 nM; IC50 [11]: 56 nM; IC50 [12]: 12 nM
